{
  "source": "patent US11547705B2",
  "about": "“Combination of a PD-1 antagonist and a VEGF-R/FGFR/RET tyrosine kinase inhibitor for treating cancer” (MERCK SHARP & DOHME LLC, priority 2015, dated 2023)",
  "key": {"[1]": {"system": "mouse lung cancer cell line LL/2 (LLc1)", "experiment": "Anti-tumor effect in subcutaneous LL/2 (LLc1) transplantation model", "type": "in vivo", "conditions": "C57BL/6J mice, lenvatinib oral once daily, anti-PD-1 antibody 500 μg/head i.p. every 3 days", "method": "A DMEM culture medium (high-glucose type) containing 10% fetal bovine serum (FBS) and penicillin/streptomycin was used to culture a mouse lung cancer cell line LL/2 (LLc1) (ATCC number: CRL-1642). Next, phosphate buffered saline (PBS) was used to prepare a cell suspension having a concentration of 2.0×10^7 cells/mL. The cell suspension was subcutaneously transplanted at a dose of 0.1 mL on the right lateral side of the body of each of 7-week-old mice (C57BL/6J, female, Charles River Laboratories Japan Inc.). Eight (8) days after the transplantation, an electronic digital caliper (Digimatic™ Caliper; Mitutoyo Corporation) was used to measure the short and long diameters of a tumor of interest. The following equation was used to calculate the tumor volume TV. Tumor Volume TV (mm^3)=Long Diameter (mm)×Short Diameter (mm)×Short Diameter (mm)/2.\n(§1) Based on the tumor volumes on the first day of administration, grouping was carried out such that the average values of the tumor volumes were almost the same. A 1 mg/ml solution of lenvatinib was prepared using water for injection (Otsuka Pharmaceutical Co., Ltd.) and was orally administered at a dose of 0.2 mL/20 g mouse body weight once daily for 14 days. 0.2 mL of an administration sample containing 2.5 mg/mL of an anti-mouse-PD-1 antibody (Clone: RMP1-14, BioXCell, Catalog#: BE0146), which had been diluted with PBS, was intraperitoneally administered (at a dosage of 500 μg/head) once every 3 days a total of 5 times (day 1, day 4, day 7, day 10, and day 13, with the day of the grouping set to day 1). To the control group, Otsuka water for injection was orally administered at a dose of 0.2 mL/20 g mouse body weight once daily for 14 days. Each group including 5 mice was used to conduct the experiment. The day (day 15) after the final administration, the respective tumor volumes (TV) were determined for the control group, the lenvatinib administration group, the anti-mouse-PD-1 antibody administration group, and the combination administration group. The values obtained by logarithmically transforming the tumor volumes were used to carry out statistical analysis."}, "[2]": {"system": "mouse colon carcinoma cell line CT26.WT", "experiment": "Anti-tumor effect in subcutaneous CT26.WT transplantation model, lenvatinib mesilate and anti-PD-L1 antibody", "type": "in vivo", "conditions": "BALB/c mice, lenvatinib mesilate oral once daily, anti-PD-L1 antibody 500 μg/head i.p. every 3 days", "method": "A RPMI1640 culture medium containing 10% FBS and penicillin/streptomycin was used to culture a mouse colon carcinoma cell line CT26.WT (ATCC number: CRL-2638). Hank's Balanced Salt Solution (HBSS) was used to prepare a cell suspension having a concentration of 3.0×10^7 cells/mL. The cell suspension was subcutaneously transplanted at a dose of 0.1 mL on the right lateral side of the body of each of 7-week-old mice (BALB/cAnNCrlCrlj, female, Charles River Laboratories Japan Inc.). 8 days after the transplantation, an electronic digital caliper (Digimatic™ Caliper; Mitutoyo Corporation) was used to measure the short and long diameters of a tumor of interest. The following equation was used to calculate the tumor volume TV. Tumor Volume TV (mm^3)=Long Diameter (mm)×Short Diameter (mm)×Short Diameter (mm)/2.\nas §1, with “of lenvatinib mesilate was prepared” for “of lenvatinib was prepared”, “of an anti-mouse-PD-L1 antibody, which had” for “of an anti-mouse-PD-1 antibody (Clone: RMP1-14, BioXCell, Catalog#: BE0146), which had”, “tumor volumes TV were determined” for “tumor volumes (TV) were determined”, “group, the anti-mouse-PD-L1 antibody administration” for “group, the anti-mouse-PD-1 antibody administration”"}, "[3]": {"molecular_target": "VEGFR2 (Homo sapiens, UniProt P35968)", "sequence (P35968 20-1356, species assumed)": "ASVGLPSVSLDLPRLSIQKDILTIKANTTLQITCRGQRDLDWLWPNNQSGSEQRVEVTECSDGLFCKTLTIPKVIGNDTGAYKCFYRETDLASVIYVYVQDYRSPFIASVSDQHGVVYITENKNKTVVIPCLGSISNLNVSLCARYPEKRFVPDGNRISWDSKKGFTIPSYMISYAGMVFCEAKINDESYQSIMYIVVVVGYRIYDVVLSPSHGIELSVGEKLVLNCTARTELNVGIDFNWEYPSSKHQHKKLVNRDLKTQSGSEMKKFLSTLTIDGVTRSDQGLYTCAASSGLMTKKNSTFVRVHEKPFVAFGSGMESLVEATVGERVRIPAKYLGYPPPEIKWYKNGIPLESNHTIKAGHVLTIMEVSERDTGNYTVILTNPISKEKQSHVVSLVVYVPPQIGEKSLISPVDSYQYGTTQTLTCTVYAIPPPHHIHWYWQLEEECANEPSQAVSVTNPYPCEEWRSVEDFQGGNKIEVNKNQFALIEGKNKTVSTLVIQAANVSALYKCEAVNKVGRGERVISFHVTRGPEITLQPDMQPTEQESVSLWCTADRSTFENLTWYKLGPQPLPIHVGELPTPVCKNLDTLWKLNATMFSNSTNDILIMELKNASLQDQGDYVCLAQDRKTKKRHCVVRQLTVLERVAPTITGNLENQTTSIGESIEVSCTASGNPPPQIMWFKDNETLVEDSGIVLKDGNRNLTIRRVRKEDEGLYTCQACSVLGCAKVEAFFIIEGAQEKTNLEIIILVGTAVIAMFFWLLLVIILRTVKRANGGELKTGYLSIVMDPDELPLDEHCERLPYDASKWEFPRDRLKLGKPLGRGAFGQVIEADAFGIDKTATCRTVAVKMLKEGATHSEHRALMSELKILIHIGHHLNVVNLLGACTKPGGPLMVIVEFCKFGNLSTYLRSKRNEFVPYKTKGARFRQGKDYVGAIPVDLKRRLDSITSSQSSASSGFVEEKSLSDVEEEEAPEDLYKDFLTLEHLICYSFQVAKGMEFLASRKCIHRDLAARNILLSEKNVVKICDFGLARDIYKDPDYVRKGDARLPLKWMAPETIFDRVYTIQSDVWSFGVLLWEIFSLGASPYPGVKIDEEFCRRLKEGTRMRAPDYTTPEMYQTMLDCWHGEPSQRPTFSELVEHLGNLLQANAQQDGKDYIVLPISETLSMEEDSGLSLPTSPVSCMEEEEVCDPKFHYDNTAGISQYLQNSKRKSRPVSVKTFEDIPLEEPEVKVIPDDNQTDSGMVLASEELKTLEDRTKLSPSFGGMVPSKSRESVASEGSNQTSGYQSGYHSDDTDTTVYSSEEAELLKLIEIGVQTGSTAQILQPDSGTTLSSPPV", "conditions": "according to kinetic analysis; background statement; cited from earlier work"}, "[4]": {"conditions": "Day 1 (day of grouping, first day of administration)"}},
  "data": [
    {"smiles": "COc1cc2nccc(Oc3ccc(NC(=O)NC4CC4)c(Cl)c3)c2cc1C(N)=O", "note": "[Lenvatinib, 4-[3-chloro-4-(cyclopropylaminocarbonyl)aminophenoxy]-7-methoxy-6-quinolinecarboxamide]", "values": [
      {"measurement": "Tumor Volume TV", "setting": "[1]; [4]", "result": 100, "unit": "mm^3"},
      {"measurement": "Tumor Volume TV", "setting": "[1]; Day 4", "result": 243, "unit": "mm^3"},
      {"measurement": "Tumor Volume TV", "setting": "[1]; Day 8", "result": 394, "unit": "mm^3"},
      {"measurement": "Tumor Volume TV", "setting": "[1]; Day 10", "result": 553, "unit": "mm^3"},
      {"measurement": "Tumor Volume TV", "setting": "[1]; Day 13", "result": 837, "unit": "mm^3"},
      {"measurement": "Tumor Volume TV", "setting": "[1]; Day 15 (day after final administration)", "result": 1143, "unit": "mm^3"},
      {"measurement": "Tumor Volume TV", "setting": "[2]; [4]", "result": 154, "unit": "mm^3"},
      {"measurement": "Tumor Volume TV", "setting": "[2]; Day 4", "result": 472, "unit": "mm^3"},
      {"measurement": "Tumor Volume TV", "setting": "[2]; Day 8", "result": 1172, "unit": "mm^3"},
      {"measurement": "Tumor Volume TV", "setting": "[2]; Day 11", "result": 1555, "unit": "mm^3"},
      {"measurement": "inhibition of kinase activity", "setting": "[3]", "result": "rapid and potent inhibition of kinase activity"}
    ]}
  ]
}
